# Results reported in patent US7829114B2, “Capsules containing aqueous fill compositions stabilized with derivatized cyclodextrin” (CyDex Pharmaceuticals, Inc., priority 2002, dated 2010).
# Where two headings read alike, the source gives them in different places.
# How the values were obtained:
# [1] = Shell stability on exposure to aqueous fill composition (half-shell integrity test, H.S.I.T.); format: physicochemical; details: for content in fill composition for an HSIT rating of at least 3: PVP and water fill, hydrophilic fill-grade BANNER SGC
# From the text: Agitation continued until all the SAE-CD dissolved.
# [2] = as above; details: for content in fill composition for an HSIT rating of at least 3: PVP and water fill, lipophilic fill-grade BANNER SGC
# Protocol: A study was conducted to determine whether or not complexation of a drug to the SAE-CD alters the ability of the SAE-CD to stabilize the capsule shell against dissolution, erosion, swelling or degradation caused by water in the fill composition enclosed within the capsule shell. Banner's hydrophilic, HFB, and lipophilic, LFB, air fill size 35 oval gelatin capsules were used in this study, which was performed as described below. […] The SAE-CD was slowly added to the water while it was stirring and on a hot plate. Agitation continued until all the SAE-CD dissolved. The SAE-CD was divided by weighing in equal amounts into nine vials (one for each drug). […] The amount of drug added produced a composition that contained a normal dose of drug in 1 gram. The vials were agitated and heated until a solution was obtained or the active was uniformly suspended. […]
# Method A: Half-Shell integrity Test (H.S.I.T.)
# In a closed container, a portion of a capsule shell is exposed to an aqueous fill composition comprising a known amount of derivatized cyclodextrin, water and optionally one or more other excipients. Observation of changes, or lack thereof, on the exposed portion's size, appearance, shape, dissolution, erosion, degradation, hardness, and/or translucence are recorded periodically over time. A rating scale is used to quantify the overall performance of the capsule portion during the test.
# [3] = Hard shell capsule stability in aqueous SBE-CD solutions; format: physicochemical; details: for content in fill composition for an HSIT rating of at least 3: SAE-CD, PVP and water fill, CAPSUGEL HPMC hard shell capsule; for failure time: vcap, monitoring discontinued after fourteen days
# Protocol: Two types of hard shell capsules obtained from […] were evaluated. A conventional hard gelatin capsule (HCAP) and a hard HPMC (hydroxypropyl methylcellulose) capsule (VCAP) were evaluated under identical conditions using aqueous solutions differing in the concentration of SBE-CD (sulfobutyl ether cyclodextrin).
# In the absence of SBE or another shell-stabilizing material, these shell materials were unstable to erosion, dissolution, swelling and degradation by water. Under the conditions of the assay, SBE cyclodextrin was able to stabilize the VCAP shells for ≧14 days even at concentrations of ≧30% wt. of the fill composition. In this assay, monitoring was discontinued after fourteen days.
# [4] = Shell stability on exposure to aqueous fill composition (half-shell integrity test, H.S.I.T.); format: physicochemical
# Protocol: The same tests were performed on gelatin capsules obtained from CARDINAL HEALTH.
# It has been discovered that PEG has a beneficial effect upon the shell-stabilizing property of an aqueous fill composition comprising SAE-CD. FIG. 6a depicts a ternary graph correlating the concentration of SAE-CD, water and PEG in a fill composition to the H.S.I.T. rating of a soft shell capsule exposed to the fill composition. Aqueous fill solutions comprising differing amounts of PEG, SAE-CD and water were prepared. The stability tests were conducted as described below. The HFC soft gelatin capsules described herein were used. For a composition comprising 40% wt. SBE-CD, 40% wt. water and 20% wt. PEG, the shell was stable for greater than 5 days. For a composition comprising 35% wt. SBE-CD, 35% wt. water and 30% wt. PEG, the shell was stable for greater than 5 days. For a composition comprising 18% wt. SBE-CD, 42% wt. water and 40% wt. PEG, the shell was stable for greater than 5 days. Under each of the conditions tested, the control sample excluded SAE-CD, i.e., containing only water and PEG at the indicated concentration, and failed within 24 hours. About the same results were obtained for the HFB (FIG. 6b), LFB (FIG. 7a) and LFC (FIG. 7b) soft gelatin capsules. Increasing the SAE-CD concentration to values higher than those indicated further increases the shelf-life of the shell or provides an HSIT rating of at least 4. Stabilized aqueous fill composition-containing capsule formulations can be achieved with each capsule if the following fill compositions are used.
# [5] = Hard shell capsule stability in aqueous SBE-CD solutions; format: physicochemical; details: SAE-CD, PVP and water fill; CAPSUGEL HGC
# [6] = 40% wt. cyclodextrin derivative in water, HFB
# [7] = 50% wt. cyclodextrin derivative in water, HFB
# [8] = 55% wt. cyclodextrin derivative in water, HFB
# [9] = 60% wt. cyclodextrin derivative in water, HFB
# [10] = 40% wt. cyclodextrin derivative in water, LFB
# [11] = 50% wt. cyclodextrin derivative in water, LFB
# [12] = 55% wt. cyclodextrin derivative in water, LFB
# [13] = 60% wt. cyclodextrin derivative in water, LFB
# [14] = 40% wt. cyclodextrin derivative in water, HFC
# [15] = 50% wt. cyclodextrin derivative in water, HFC
# [16] = 55% wt. cyclodextrin derivative in water, HFC
# [17] = 60% wt. cyclodextrin derivative in water, HFC
compound,measurement,setting,value
O [Water],content in fill composition for a stabilized capsule formulation,"[1]; SAE-CD, PEG and water fill, HFB",≦48%
same,content in fill composition for an HSIT rating of at least 3,[1]; SAE-CD,≦54%
same,content in fill composition for a stabilized capsule formulation,"[2]; SAE-CD, PEG and water fill, LFB",≦50%
same,content in fill composition for an HSIT rating of at least 3,[2]; SAE-CD,≦54%
same,content in fill composition for an HSIT rating of at least 3,[3],≦70%
same,content in fill composition for a stabilized capsule formulation,"[4]; SAE-CD, PEG and water fill, HFC",≦50%
same,content in fill composition for an HSIT rating of at least 3,[5],≦36%
sulfobutyl ether cyclodextrin [SAE-CD],content in fill composition for a stabilized capsule formulation,[1],≧12%
same,Increase in shell size,[1]; [6],2× × original
same,Observations,[1]; [6],shape intact
same,Time for failure,[1]; [6],3 days
same,Increase in shell size,[1]; [7],2.5 × original
same,Observations,[1]; [7],Slightly
same,Time for failure,[1]; [7],16 days
same,Increase in shell size,[1]; [8],2 × original
same,Observations,[1]; [8],Deformed
same,Time for failure,[1]; [8],10 days
same,Increase in shell size,[1]; [9],no change
same,Observations,[1]; [9],No change
same,Time for failure,[1]; [9],≧21 days
same,content in fill composition for an HSIT rating of at least 3,[1]; SAE-CD,≧6%
same,content in fill composition for a stabilized capsule formulation,[2],≧18%
same,Increase in shell size,[2]; [10],2.5× × original
same,Observations,[2]; [10],shape intact
same,Time for failure,[2]; [10],3 days
same,Increase in shell size,[2]; [11],2.5 × original
same,Observations,[2]; [11],Deformed
same,Time for failure,[2]; [11],7 days
same,Increase in shell size,[2]; [12],2 × original
same,Observations,[2]; [12],Deformed
same,Time for failure,[2]; [12],10 days
same,Increase in shell size,[2]; [13],no change in length
same,Observations,[2]; [13],Slight
same,Time for failure,[2]; [13],≧21 days
same,content in fill composition for an HSIT rating of at least 3,[2]; SAE-CD,≧6%
same,failure time,[3]; 30% SBE solution,>14 days
same,failure time,[3]; 40% SBE solution,>14 days
same,failure time,[3]; 50% SBE solution,>14 days
same,failure time,[3]; 60% SBE solution,>14 days
same,content in fill composition for an HSIT rating of at least 3,[3],≧6%
same,time VCAP shells were stabilized,[3]; concentrations of ≧30% wt. of the fill composition,≥ 14 days
same,content in fill composition for a stabilized capsule formulation,[4],≧18%
same,time the shell was stable,"[4]; 18% wt. SBE-CD, 42% wt. water and 40% wt. PEG, HFC",greater than 5 days
same,time the shell was stable,"[4]; 35% wt. SBE-CD, 35% wt. water and 30% wt. PEG, HFC",greater than 5 days
same,time the shell was stable,"[4]; 40% wt. SBE-CD, 40% wt. water and 20% wt. PEG, HFC",greater than 5 days
same,Increase in shell size,[4]; [14],3 × original
same,Observations,[4]; [14],deformed
same,Time for failure,[4]; [14],4 days
same,Increase in shell size,[4]; [15],2 × original
same,Observations,[4]; [15],shape intact
same,Time for failure,[4]; [15],7 days
same,Increase in shell size,[4]; [16],No change
same,Observations,[4]; [16],No deformities
same,Time for failure,[4]; [16],≧14 days
same,Increase in shell size,[4]; [17],no change
same,Observations,[4]; [17],no change
same,Time for failure,[4]; [17],>21 days
same,content in fill composition for an HSIT rating of at least 3,[5],≧24%
